Results on one substance are retold here after patent US9150982B2, “Crystal form of (6S)-5-methyltetrahydrofolate salt and method for preparing same” (LIANYUNGANG JINKANG HEXIN PHARMACEUTICAL CO. LTD., priority 2012, dated 2015).

Read-outs that look alike come from different tables or passages of the source.

The conditions of this data set: in the air, 40° C., relative humidity 60%. As for the experimental part:
In order to determine the stability of the novel crystal form of the Form C of (6S)-5-MTHF calcium salt, the crystal form was placed in the air at a temperature of 40° C. and a relative humidity of 60%, and the content of remained (6S)-5-MTHF calcium salt was periodically measured.

Turning to “(6S)-5-methyltetrahydrofolate calcium salt [Form C]”, the “Stability (overall result in words)” value (up to 9 days) is recorded as “good stability”. The Appearance entry is “White crystal” (storage 0 days), “White crystal” (storage 3 days), “White crystal” (storage 6 days) and “White crystal” (storage 9 days). In addition, the “Content of remained (6S)-5-MTHF calcium salt” value is given as 99.5% (storage 0 days), 99.1% (storage 3 days), 99.1% (storage 6 days) and 98.4% (storage 9 days).
